Values of other authors in US8158685B2, “Method for bone growth” (priority 2004, dated 2012).

What was measured:
bone graft = settings: fluoride alone added to bone graft material
spine = settings: immediate-release form, 75 mg/day with calcium carbonate over 4 years

Structure (SMILES)	improvement/increase in bone density (bone graft)	bone density increase (spine)	effect on spinal fractures (spine)
F [fluoride]	20%		
[F-].[Na+] [sodium fluoride]		35%	failed to reduce spinal fractures
